In patent publication US10597388B2, “Pyridazinone herbicides” (FMC CORPORATION, priority 2014, dated 2020):
Read-outs that look alike come from different tables or passages of the source.

Columns and labels:
Format in all cases: in vivo
[1] = test system: barnyardgrass (Echinochloa crus-galli); experiment: Test A greenhouse herbicide test, pre- and postemergence; conditions: Echinochloa crus-galli, 240 h; for pest or weed control at 125 g/ha: 125 g ai/ha; for pest or weed control at 500 g/ha: 500 g ai/ha; for pest or weed control at 500 g/ha / pest or weed control at 1000 g/ha: 0 to 100 scale; for pest or weed control at 1000 g/ha: 1000 g ai/ha
How it was run: (§1)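 Seeds in loam–sand blend received a preemergence directed soil spray; plants at 2–10 cm, one- to two-leaf stage, received postemergence sprays. Compounds in a non-phytotoxic solvent with surfactant. After about 10 d in a greenhouse, injury rated visually versus untreated controls on a 0–100 scale (100 = complete control).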

[2] = test system: corn (Zea mays); experiment: as above; conditions: Zea mays, 240 h
How it was run: as §1

[3] = test system: foxtail, giant (giant foxtail, Setaria faberii); experiment: as above; conditions: Setaria faberi, 240 h; for pest or weed control at 125 g/ha: 125 g ai/ha; for pest or weed control at 500 g/ha: 500 g ai/ha; for pest or weed control at 500 g/ha / pest or weed control at 1000 g/ha: 0 to 100 scale; for pest or weed control at 1000 g/ha: 1000 g ai/ha
How it was run: as §1

[4] = test system: pigweed (Amaranthus retroflexus); experiment: as above; conditions: Amaranthus retroflexus, 240 h; for pest or weed control at 125 g/ha: 125 g ai/ha; for pest or weed control at 500 g/ha: 500 g ai/ha; for pest or weed control at 500 g/ha / pest or weed control at 1000 g/ha: 0 to 100 scale; for pest or weed control at 1000 g/ha: 1000 g ai/ha
How it was run: as §1

[5] = test system: wheat (Triticum aestivum); experiment: as above; conditions: Triticum aestivum, 240 h; for plant injury at 125 g/ha: 125 g ai/ha; for plant injury at 500 g/ha: 500 g ai/ha; for plant injury at 500 g/ha / plant injury at 1000 g/ha: 0 to 100 scale; for plant injury at 1000 g/ha: 1000 g ai/ha
How it was run: as §1

[6] = test system: mustard, wild (wild mustard, Sinapis arvensis); experiment: Test D controlled growth environment herbicide test, pre- and postemergence; conditions: for Mustard, Wild plant response rating / Plant response rating (scale of 0 to 100), Mustard, Wild: 31 g ai/ha
Description: Seeds of plant species selected from bluegrass (annual bluegrass, Poa annua), blackgrass (Alopecurus myosuroides), Canada thistle (Cirsium arvense), canarygrass (Phalaris minor), chickweed (common chickweed, Stellaria media), geranium, cutleaf (cutleaf geranium, Geranium dissectum), galium (catchweed bedstraw, Galium aparine), bromegrass, downy (downy bromegrass, Bromus tectorum), field poppy (Papaver rhoeas), field violet (Viola arvensis), foxtail, green (green foxtail, Setaria viridis), deadnettle (henbit deadnettle, Lamium amplexicaule), ryegrass, Italian (Italian ryegrass, Lolium multiflorum), kochia (Kochia scoparia), lambsquarters (Chenopodium album), oilseed rape (Brassica napus), pigweed (Amaranthus retroflexus), chamomile (scentless chamomile, Matricaria inodora), Russian thistle (Salsola kali), speedwell (bird's-eye speedwell, Veronica persica), barley, spring (spring barley, Hordeum vulgare), wheat, spring (spring wheat, Triticum aestivum), buckwheat, wild (wild buckwheat, Polygonum convolvulus), mustard, wild (wild mustard, Sinapis arvensis), oat, wild (wild oat, Avena fatua), radish, wild (wild radish, Raphanus raphanistrum), windgrass (Apera spica-venti), barley, winter (winter barley, Hordeum vulgare), and wheat, winter (winter wheat, Triticum aestivum) were planted into a silt loam soil and treated preemergence with test chemicals formulated in a non-phytotoxic solvent mixture which included a surfactant.
At the same time, these species were planted in pots containing Redi-Earth® planting medium (Scotts Company, 14111 Scottslawn Road, Marysville, Ohio 43041) comprising spaghnum peat moss, vermiculite, wetting agent and starter nutrients and treated with postemergence applications of the test chemicals formulated in the same manner. Plants ranged in height from 2 to 18 cm (1- to 4-leaf stage). Treated plants and controls were maintained in a controlled growth environment for 14 to 21 d after which time all species were compared to controls and visually evaluated. Plant response ratings, summarized in Table D, are based on a scale of 0 to 100 where 0 is no effect and 100 is complete control. A dash (-) response means no test result.

[7] = post-emergence, Postemergence, 0 is no effect, 100 is complete control, read-out: Barnyardgrass plant response rating
[8] = pre-emergence, Preemergence, 0 no effect, 100 complete control, read-out: Plant response rating, Barnyardgrass
[9] = post-emergence, Postemergence, 0 is no effect, 100 is complete control, read-out: Foxtail, Giant plant response rating
[10] = pre-emergence, Preemergence, 0 no effect, 100 complete control, read-out: Plant response rating, Foxtail, Giant
[11] = post-emergence, Postemergence, 0 is no effect, 100 is complete control, read-out: Pigweed plant response rating
[12] = pre-emergence, Preemergence, 0 no effect, 100 complete control, read-out: Plant response rating, Pigweed
[13] = post-emergence, Postemergence, 0 is no effect, 100 is complete control, read-out: Wheat plant response rating
[14] = pre-emergence, Preemergence, 0 no effect, 100 complete control, read-out: Plant response rating, Wheat
[15] = Postemergence, scale 0 to 100 (0 no effect, 100 complete control)
[16] = Postemergence, 125 g ai/ha, visual rating on scale 0 (no effect) to 100 (complete control), 14 to 21 d
[17] = Postemergence, 250 g ai/ha, scale 0 to 100 (0 no effect, 100 complete control)
[18] = Preemergence, 62 g ai/ha, scale 0 to 100 (0 no effect, 100 complete control)
[19] = Preemergence, 125 g ai/ha, scale 0 to 100 (0 no effect, 100 complete control)
[20] = Preemergence, 250 g ai/ha, scale 0 to 100, 0 no effect, 100 complete control
[21] = postemergence, 62 g ai/ha, scale 0 to 100, 0 no effect, 100 complete control

SMILES: Cc1cc(C)c2sc(C)c(-c3c(O)c(C)nn(C)c3=O)c2c1 [Compound 2, 5-hydroxy-2,6-dimethyl-4-(2,5,7-trimethylbenzo[b]thien-3-yl)-3(2H)-pyridazinone]
- pest or weed control at 125 g/ha ([1]; post-emergence, Postemergence, visual rating after approx. 10 d, 0 to 100 scale (0 no effect, 100 complete control), read-out: Plant response rating, Barnyardgrass): 30%
- pest or weed control at 500 g/ha [1, 7]: 80%
- pest or weed control at 125 g/ha ([1]; pre-emergence, Preemergence, 0 to 100 scale where 0 is no effect and 100 is complete control, read-out: Barnyardgrass plant response rating): 50%
- pest or weed control at 500 g/ha [1, 8]: 80%
- Corn plant response rating (crop injury, 0 = no effect, 100 = complete kill) at 125 g/ha ([2]; post-emergence, Postemergence, 125 g ai/ha, visual rating after approx. 10 d, 0 to 100 scale (0 no effect, 100 complete control)): 0%
- plant injury at 500 g/ha ([2]; post-emergence, Postemergence, 500 g ai/ha, 0 to 100 scale, 0 is no effect, 100 is complete control, read-out: Corn plant response rating): 20%
- plant injury at 125 g/ha ([2]; pre-emergence, Preemergence, 125 g ai/ha, 0 to 100 scale where 0 is no effect and 100 is complete control, read-out: Corn plant response rating): 0%
- Corn plant response rating (crop injury, 0 = no effect, 100 = complete kill) at 500 g/ha ([2]; pre-emergence, Preemergence, 500 g ai/ha, 0 to 100 scale, 0 no effect, 100 complete control): 10%
- pest or weed control at 125 g/ha ([3]; post-emergence, Postemergence, visual rating after approx. 10 d, 0 to 100 scale (0 no effect, 100 complete control), read-out: Plant response rating, Foxtail, Giant): 80%
- pest or weed control at 500 g/ha [3, 9]: 90%
- pest or weed control at 125 g/ha ([3]; pre-emergence, Preemergence, 0 to 100 scale where 0 is no effect and 100 is complete control, read-out: Foxtail, Giant plant response rating): 100%
- pest or weed control at 500 g/ha [3, 10]: 100%
- pest or weed control at 125 g/ha ([4]; post-emergence, Postemergence, visual rating after approx. 10 d, 0 to 100 scale (0 no effect, 100 complete control), read-out: Plant response rating, Pigweed): 100%
- pest or weed control at 500 g/ha [4, 11]: 100%
- pest or weed control at 125 g/ha ([4]; pre-emergence, Preemergence, 0 to 100 scale where 0 is no effect and 100 is complete control, read-out: Pigweed plant response rating): 100%
- pest or weed control at 500 g/ha [4, 12]: 100%
- plant injury at 125 g/ha ([5]; post-emergence, Postemergence, visual rating after approx. 10 d, 0 to 100 scale (0 no effect, 100 complete control), read-out: Plant response rating, Wheat): 20%
- plant injury at 500 g/ha [5, 13]: 20%
- plant injury at 125 g/ha ([5]; pre-emergence, Preemergence, 0 to 100 scale where 0 is no effect and 100 is complete control, read-out: Wheat plant response rating): 0%
- plant injury at 500 g/ha [5, 14]: 0%
- Mustard, Wild plant response rating [6, 15]: 25
- Plant response rating, Mustard, Wild [6, 16]: 40
- Plant response rating, Mustard, Wild [6, 17]: 55
- Plant response rating (scale of 0 to 100), Mustard, Wild ([6]; Preemergence): 0
- Plant response rating, Mustard, Wild [6, 18]: 0
- Plant response rating, Mustard, Wild [6, 19]: 5
- Plant response rating, Mustard, Wild [6, 20]: 40
- Plant response rating, Mustard, Wild [6, 21]: 35

SMILES: Cc1nn(C)c(=O)c(-c2cccc3ccccc23)c1O [Compound 11, 5-hydroxy-2,6-dimethyl-4-(1-naphthalenyl)-3(2H)-pyridazinone]
- pest or weed control at 1000 g/ha [1, 7]: 80%
- pest or weed control at 1000 g/ha [1, 8]: 90%
- plant injury at 1000 g/ha ([2]; post-emergence, Postemergence, 1000 g ai/ha, 0 to 100 scale, 0 is no effect, 100 is complete control, read-out: Corn plant response rating): 50%
- Corn plant response rating (crop injury, 0 = no effect, 100 = complete kill) at 1000 g/ha ([2]; pre-emergence, Preemergence, 1000 g ai/ha, 0 to 100 scale, 0 no effect, 100 complete control): 20%
- pest or weed control at 1000 g/ha [3, 9]: 90%
- pest or weed control at 1000 g/ha [3, 10]: 90%
- pest or weed control at 1000 g/ha [4, 11]: 90%
- pest or weed control at 1000 g/ha [4, 12]: 100%
- plant injury at 1000 g/ha [5, 13]: 60%
- plant injury at 1000 g/ha [5, 14]: 50%
- Mustard, Wild plant response rating [6, 15]: 65
- Plant response rating, Mustard, Wild [6, 16]: 75
- Plant response rating, Mustard, Wild [6, 17]: 95
- Plant response rating (scale of 0 to 100), Mustard, Wild ([6]; Preemergence): 0
- Plant response rating, Mustard, Wild [6, 18]: 20
- Plant response rating, Mustard, Wild [6, 19]: 75
- Plant response rating, Mustard, Wild [6, 20]: 100
- Plant response rating, Mustard, Wild [6, 21]: 70
